Patent US20220281848A1, “PYRAZOLE-SUBSTITUTED PYRROLIDINONES AS HERBICIDES” (FMC Corporation, priority 2019, published 2022)

Legend:
Type in all cases: in vivo
Settings in all cases: 19 to 21 days
[1] = tested on: corn (Zea mays); assay: Test C preemergence, corn
Excerpt: (§1) Seeds of plant species selected from corn (Zea mays), soybean (Glycine max), velvetleaf (Abutilon theophrasti), palmer pigweed (Amaranthus palmeri), waterhemp (common waterhemp, Amaranthus rudis), surinam grass (Brachiaria decumbens), large (Lg) crabgrass (Digitaria sanguinalis), fall panicum (Panicum dichotomiflorum), giant foxtail (Setaria faberi), ragweed (common ragweed, Ambrosia elatior), barnyardgrass (Echinochloa crus-galli), E. Black Nightshade (Solanum ptycanthum), and horseweed (Conyza canadensis), were planted into a silt loam soil and treated preemergence with test chemicals formulated in a non-phytotoxic solvent mixture which included a surfactant.
(§2) Treated plants and controls were maintained in a greenhouse for 19 to 21 days, after which time all species were compared to controls and visually evaluated. Plant response ratings, summarized in Table C, are based on a scale of 0 to 100 where 0 is no effect and 100 is complete control.

[2] = tested on: large (Lg) crabgrass (Digitaria sanguinalis); assay: Test C preemergence, large crabgrass
Excerpt: as §1, §2

[3] = tested on: giant foxtail (Setaria faberi); assay: Test C preemergence, giant foxtail
Excerpt: as §1, §2

Question: How did the “Plant response rating (0 no effect, 100 complete control) Corn” value ([1]; 4 g ai/ha Preemergence) turn out when `CN1C[C@H](c2cc(C(F)(F)F)n(C)n2)[C@@H](C(=O)Nc2cccc(F)c2F)C1=O` [Compound 13, (3S,4R)—N-(2,3-difluorophenyl)-1-methyl-4-[1-methyl-5-(trifluoromethyl)-1H-pyrazol-3-yl]-2-oxo-3-pyrrolidinecarboxamide] was run?
Answer: 0

Question: What about the “Plant response rating (0 no effect, 100 complete control) Corn” value ([1]; 8 g ai/ha Preemergence) of the same compound?
Answer: 0

Question: What about the “Plant response rating (0 no effect, 100 complete control) Corn” value ([1]; 16 g ai/ha Preemergence) of the same compound?
Answer: 0

Question: And the “Plant response rating (0 no effect, 100 complete control) Corn” value ([1]; 31 g ai/ha Preemergence)?
Answer: 0

Question: What about the “Plant response rating (0 no effect, 100 complete control) Corn” value ([1]; 62 g ai/ha Preemergence) of the same compound?
Answer: 0

Question: What about the “Plant response rating (0 no effect, 100 complete control) Corn” value ([1]; 125 g ai/ha Preemergence) of the same compound?
Answer: 15

Question: What about the “Plant response rating (0 no effect, 100 complete control) Crabgrass, Large” value ([2]; 4 g ai/ha Preemergence) of the same compound?
Answer: 70

Question: What about the “Plant response rating (0 no effect, 100 complete control) Crabgrass, Large” value ([2]; 8 g ai/ha Preemergence) of the same compound?
Answer: 89

Question: And the “Plant response rating (0 no effect, 100 complete control) Crabgrass, Large” value ([2]; 16 g ai/ha Preemergence)?
Answer: 98

Question: What about the “Plant response rating (0 no effect, 100 complete control) Crabgrass, Large” value ([2]; 31 g ai/ha Preemergence) of the same compound?
Answer: 98

Question: What about the “Plant response rating (0 no effect, 100 complete control) Crabgrass, Large” value ([2]; 62 g ai/ha Preemergence) of the same compound?
Answer: 98

Question: And the “Plant response rating (0 no effect, 100 complete control) Crabgrass, Large” value ([2]; 125 g ai/ha Preemergence)?
Answer: 98

Question: And the “Plant response rating (0 no effect, 100 complete control) Foxtail, Giant” value ([3]; 4 g ai/ha Preemergence)?
Answer: 0

Question: And the “Plant response rating (0 no effect, 100 complete control) Foxtail, Giant” value ([3]; 8 g ai/ha Preemergence)?
Answer: 55

Question: And the “Plant response rating (0 no effect, 100 complete control) Foxtail, Giant” value ([3]; 16 g ai/ha Preemergence)?
Answer: 73

Question: What about the “Plant response rating (0 no effect, 100 complete control) Foxtail, Giant” value ([3]; 31 g ai/ha Preemergence) of the same compound?
Answer: 88

Question: What about the “Plant response rating (0 no effect, 100 complete control) Foxtail, Giant” value ([3]; 62 g ai/ha Preemergence) of the same compound?
Answer: 95

Question: And the “Plant response rating (0 no effect, 100 complete control) Foxtail, Giant” value ([3]; 125 g ai/ha Preemergence)?
Answer: 95
